Publication PMC6152084, “Synthesis of New Hydrazone Derivatives for MAO Enzymes Inhibitory Activity” (Molecules : A Journal of Synthetic Chemistry and Natural …, 2017)
“Also recorded” adds a separate entry of the source. Marks after values point to notes of the source that are not given here.

How the values were obtained:
[1] = target: T1, hMAO-A (Homo sapiens, UniProt P21397); test: MAO-A inhibition assay (in vitro fluorometric Amplex Red method); type: biochemical; conditions: for inhibition at 1000 µM: 10^−3 M; for inhibition at 100 µM: 10^−4 M; for inhibition at 10 µM: 10^−5 M; for inhibition at 1 µM: 10^−6 M; for inhibition at 0.1 µM: 10^−7 M; for inhibition at 0.01 µM: 10^−8 M; for inhibition at 0.001 µM: 10^−9 M; for inhibition against hMAO-A in the initial assay: first step, 10^−3 and 10^−4 M; for selectivity towards hMAO-A: versus hMAO-B
T1 construct: purchased Sigma-Aldrich (Steinheim, Germany)
T1 sequence (P21397 1-527): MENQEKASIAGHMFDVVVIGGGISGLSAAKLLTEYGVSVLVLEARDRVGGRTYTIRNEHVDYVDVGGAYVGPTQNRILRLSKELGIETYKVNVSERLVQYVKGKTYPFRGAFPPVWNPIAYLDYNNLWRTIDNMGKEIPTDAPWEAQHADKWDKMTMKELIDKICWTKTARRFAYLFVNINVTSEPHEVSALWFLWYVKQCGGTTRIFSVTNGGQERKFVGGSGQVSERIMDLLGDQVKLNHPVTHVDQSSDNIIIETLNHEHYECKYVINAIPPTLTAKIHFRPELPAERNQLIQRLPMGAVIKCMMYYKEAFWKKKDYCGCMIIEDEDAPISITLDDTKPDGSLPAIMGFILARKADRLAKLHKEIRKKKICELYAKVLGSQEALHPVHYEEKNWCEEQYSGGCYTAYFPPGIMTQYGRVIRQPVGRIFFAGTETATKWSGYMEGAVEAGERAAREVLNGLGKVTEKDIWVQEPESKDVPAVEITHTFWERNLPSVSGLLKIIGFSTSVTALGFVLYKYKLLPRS

[2] = tested on: NIH/3T3 mouse embryonic fibroblast cell line; test: Cytotoxicity test (MTT assay); type: cell-based; conditions: for IC50: Mus musculus, NIH3T3, MTT, read-out: IC50 against NIH/3T3 cells; for cytotoxicity (in words): at effective concentration against hMAO-A
Experimental: In cytotoxicity test by using NIH/3T3 mouse embryonic fibroblast cell line (ATCC® CRL-1658™, London, UK), firstly NIH/3T3 cells were incubated in the Dulbecco’s Modified Eagle’s Medium (DMEM, Sigma Aldrich, St. Louis, MO, USA). NIH/3T3 cells were plated on 96-well culture plates as 10,000 cells per well and were then treated with the compounds at concentrations ranging from 1000 µM to 0.316 µM (1000, 316, 100, 31.6, 10, 3.16, 1, 0.316 µM). MTT assay was performed as previously described. Dose-response curves were plotted against compound concentrations applied to determine IC50 values.

[3] = tested on: Salmonella typhimurium TA98; test: Ames MPF genotoxicity test, TA98; type: cell-based; conditions: for mutagenicity classification against TA98: in the presence and absence of metabolic activation (S9)
Experimental: An Ames MPF assay was performed to investigate the genotoxicity of the compounds 2a and 2b.
The genotoxicity of the compounds was determined by Ames assay as previously described using the Ames MPF 98/100 mutagenicity test sample kit (Xenometrix AG, Allschwil, Switzerland). This test was performed with Salmonella typhimurium strains TA98 (frameshift mutations) and TA100 (base-pair substitutions). Compounds was prepared in six different concentrations (5, 2.5, 1.25, 0.625, 0.3125, 0.156 mg/mL) which was between […] and 5000 µg/mL according to the previous guidelines in DMSO. In order to detect mutagenic potential, test performed with and without Aroclor™-1254 induced male Sprague-Dawley rat liver microsomal enzyme (S9) mix (Xenometrix AG). While the positive control for TA 98 without S9 mix was 2-nitrofluorene (2 μg/mL), 1 μg/mL of 2-aminoanthracene was positive control with S9 against TA 98. For TA100, 4-nitroquinoline N-oxide (0.1 μg/mL) was positive control without S9 mix and 2.5 μg/mL of 2-aminoanthracene was positive control. 4% DMSO solution was the solvent control. At the end of the experiment, revertant bacteria decreased the pH of solution and indicator medium colour was changed to yellow. Yellow wells were counted as positive and compared with the negative control. Fold induction over the negative control and fold induction over the baseline were calculated. Fold induction over the negative control is the ratio of the mean number of positive wells for the dose concentration divided by the mean number of positive wells for the zero dose (negative) control. Fold induction over the baseline is the ratio of the mean number of positive wells for the dose concentration divided by zero dose baseline. The zero dose baseline is obtained by adding one standard deviation to the mean number of positive wells of the zero dose control. Mutagenity was determined according to the criteria from previous studies. For a baseline value ≤ 3, significant increases between 2 and 3-fold the baseline were classified as weak mutagen, increases ≥ 3-fold the baseline were classified as mutagen. For a baseline was > 3, significant increases between 1.5 and 2.5-fold the baseline were classified as weak mutagen, and increases ≥ 2.5-fold the baseline, were classified as mutagen. In principle, for a mutagenic compound, at least two adjacent doses with significant increase or a significant increase at the highest dose level should be observed. All doses were compared according to Student’s t-test at p < 0.05 as statistically.

SMILES	IC50 [1] [µM]	inhibition at 1000 µM [1] [%]	inhibition at 100 µM [1] [%]	inhibition at 10 µM [1] [%]	inhibition at 1 µM [1] [%]	inhibition at 0.1 µM [1] [%]	inhibition at 0.01 µM [1] [%]	inhibition at 0.001 µM [1] [%]	inhibition against hMAO-A in the initial assay [1]	selectivity towards hMAO-A [1]	IC50 [2] [µM]	cytotoxicity (in words) [2]	Revertants Fold Increase (Over Baseline) ([3]; TA 98, S9+, 0.156 mg/mL)	Revertants Fold Increase (Over Baseline) ([3]; TA 98, S9+, 1.25 mg/mL)	Revertants Fold Increase (Over Baseline) ([3]; TA 98, S9+, 2.5 mg/mL)	Revertants Fold Increase (Over Baseline) ([3]; TA 98, S9+, 5 mg/mL)	Revertants Fold Increase (Over Baseline) ([3]; TA 98, S9−, 0.156 mg/mL)	Revertants Fold Increase (Over Baseline) ([3]; TA 98, S9−, 0.3125 mg/mL)	Revertants Fold Increase (Over Baseline) ([3]; TA 98, S9−, 0.625 mg/mL)	Revertants Fold Increase (Over Baseline) ([3]; TA 98, S9−, 1.25 mg/mL)	further results
CC1CCCCN1c1ccc(/C=N/Nc2ccccc2)cc1 (centres unmarked) [Compound 2a, 1-(4-(2-Methypiperidin-1-yl)benzylidene)-2-phenylhydrazine]	0.342 ± 0.015	88.2 ± 0.821	84.29 ± 0.641	75.1 ± 0.693	50.8 ± 0.582	34.7 ± 0.378	30.5 ± 0.542	25.5 ± 0.517	more than 50%	selective inhibition potency towards hMAO-A	930 ± 15.4	non-cytotoxic; also recorded: not cytotoxic	0.92	0.75	0.75	1.17	0.42	0.08 *	0.58	0.50	Revertants Fold Increase (Over Baseline) ([3]; TA 98, S9+, 0.3125 mg/mL): 0.83; Revertants Fold Increase (Over Baseline) ([3]; TA 98, S9+, 0.625 mg/mL): 0.58; Revertants Fold Increase (Over Baseline) ([3]; TA 98, S9−, 2.5 mg/mL): 0.08 *; Revertants Fold Increase (Over Baseline) ([3]; TA 98, S9−, 5 mg/mL): 0.17 *; mutagenicity classification against TA98 [3]: non-mutagenic
CN1CCN(c2ccc(C=NNc3ccccc3)cc2)CC1 [Compound 2b, 1-(4-(4-Methylpiperazine-1-yl)benzylidene)-2-phenylhydrazine]	0.028 ± 0.001	93.53 ± 0.412	88.86 ± 0.214	80.42 ± 0.47	66.22 ± 0.54	48.2 ± 0.631	45.3 ± 0.48	38.15 ± 0.367	more than 50%	selective inhibition potency towards hMAO-A	20 ± 1.32	non-cytotoxic; also recorded: not cytotoxic	0.85	0.37	0.37	0.12	1.24 *	0.36	0.22	0.00	fold more active than moclobemide against hMAO-A ([1]; ratio of IC50 values): 216 fold; Revertants Fold Increase (Over Baseline) ([3]; TA 98, S9−, 2.5 mg/mL): 0.00; Revertants Fold Increase (Over Baseline) ([3]; TA 98, S9−, 5 mg/mL): 0.00; Fold-inductions over baseline ([3]; TA98 without S9, all concentrations): ≤ 1.5; mutagenicity classification against TA98 [3]: not classified as a mutagen
